Molecules are shown by their SMILES. Active and inactive are the calls of the source. The rule behind the calls is not given here.

A short description of assay [1]: Antiproliferative activity against human MINO cells assessed as cell growth inhibition measured after 72 hrs by resazurin dye based microplate reader analysis. The class given is functional. (Alamar Blue is a resazurin reagent that responds to reducing activity.)
In assay [2] the target is Dual specificity tyrosine-phosphorylation-regulated kinase 1A (Homo sapiens) (UniProt Q13627). As to the kind of experiment: Inhibition of human DYRK1A (1 to 502 residues) expressed in Escherichia coli expression system at 1 uM using KKISGRLSPIMTEQ peptide as substrate incubated for 30 mins in presence of [gamma33P]ATP by scintillation based radioactive filter binding assay relative to control.

The test system of another assay is SUD4. In words: Antiproliferative activity against human SU-DHL-4 cells assessed as cell growth inhibition measured after 72 hrs by resazurin dye based microplate reader analysis. The class given is functional.
The next assay concerns NU-DUL-1. As to the kind of experiment: Antiproliferative activity against human NU-DUL-1 cells assessed as cell growth inhibition measured after 72 hrs by resazurin dye based microplate reader analysis. Type of assay: functional.
Assay [3] has as its target Serine/threonine-protein kinase PAK 4 (Homo sapiens) (UniProt O96013). As to the kind of experiment: Inhibition of human PAK4 (2 to 591 residues) expressed in Escherichia coli expression system at 1 uM using RRRLSFAEPG peptide as substrate incubated for 30 mins in presence of [gamma33P]ATP by scintillation based radioactive filter binding assay relative to control.
For a further assay, the target named is CDK9/cyclin T1 (Homo sapiens, UniProt P50750). In words: Inhibition of GST-tagged human CDK9/Cyclin T1 expressed in Sf9 cells using (YSPTSPS)2KK peptide as substrate in presence of ATP and [gamma33-P] ATP by radioisotope filter binding assay. The class given is cell-based.
Sequence of CDK9/cyclin T1 (O60563 whole entry, the tested form may be a part): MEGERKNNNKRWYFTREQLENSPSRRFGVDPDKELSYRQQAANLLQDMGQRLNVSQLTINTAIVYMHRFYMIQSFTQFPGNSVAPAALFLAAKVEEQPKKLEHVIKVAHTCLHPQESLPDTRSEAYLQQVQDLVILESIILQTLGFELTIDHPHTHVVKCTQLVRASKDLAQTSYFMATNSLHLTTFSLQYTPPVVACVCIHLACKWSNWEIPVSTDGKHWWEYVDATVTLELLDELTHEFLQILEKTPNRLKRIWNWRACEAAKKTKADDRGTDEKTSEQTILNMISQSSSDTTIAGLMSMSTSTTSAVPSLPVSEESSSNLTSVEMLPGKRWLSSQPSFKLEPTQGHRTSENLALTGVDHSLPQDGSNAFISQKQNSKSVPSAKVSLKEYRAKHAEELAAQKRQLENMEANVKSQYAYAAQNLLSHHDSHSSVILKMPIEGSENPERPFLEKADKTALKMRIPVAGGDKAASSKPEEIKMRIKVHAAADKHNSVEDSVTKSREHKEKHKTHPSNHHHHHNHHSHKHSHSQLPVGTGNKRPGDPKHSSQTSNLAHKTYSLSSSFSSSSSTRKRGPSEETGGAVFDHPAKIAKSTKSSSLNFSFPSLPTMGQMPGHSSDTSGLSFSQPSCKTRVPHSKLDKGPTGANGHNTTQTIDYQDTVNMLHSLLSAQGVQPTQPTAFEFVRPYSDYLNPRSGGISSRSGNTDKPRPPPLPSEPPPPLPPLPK
Sequence of CDK9/cyclin T1 (P50750 whole entry, the tested form may be a part): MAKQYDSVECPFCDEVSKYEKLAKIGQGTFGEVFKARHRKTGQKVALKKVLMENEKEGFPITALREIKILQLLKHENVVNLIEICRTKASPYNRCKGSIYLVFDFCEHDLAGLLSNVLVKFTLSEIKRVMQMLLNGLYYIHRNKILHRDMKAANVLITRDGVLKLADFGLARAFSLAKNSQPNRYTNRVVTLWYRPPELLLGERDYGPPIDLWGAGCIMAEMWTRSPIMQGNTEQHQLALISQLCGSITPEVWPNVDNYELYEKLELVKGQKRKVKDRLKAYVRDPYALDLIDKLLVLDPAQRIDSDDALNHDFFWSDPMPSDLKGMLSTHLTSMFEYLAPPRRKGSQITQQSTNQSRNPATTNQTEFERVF
Assay [4] deals with Glycogen synthase kinase-3 beta (Homo sapiens) (UniProt P49841). In words: Inhibition of human GSK3beta (2 to 420 residues) expressed in Sf21 cells at 1 uM using YRRAAVPPSPSLSRHSSPHQS(PO4)EDEEE peptide as substrate incubated for 30 mins in presence of [gamma33P]ATP by scintillation based radioactive filter binding assay relative to control.
Assay [5] has as its target Cyclin-dependent kinase 13/Cyclin-K (Homo sapiens, UniProt Q14004). As to the kind of experiment: Inhibition of GST-tagged human CDK13/Cyclin K expressed in Sf9 cells using RBER-IRStide peptide as substrate in presence of ATP and [gamma33-P] ATP by radioisotope filter binding assay.
A short description of assay [6]: Antiproliferative activity against human UPF1H cells assessed as cell growth inhibition measured after 72 hrs by resazurin dye based microplate reader analysis. Type of assay: functional.
The next assay deals with DB. As to the kind of experiment: Antiproliferative activity against human DB cells assessed as cell growth inhibition measured after 72 hrs by resazurin dye based microplate reader analysis. Type of assay: functional.
For a further assay, the target named is CDK12/Cyclin K (Homo sapiens, UniProt Q9NYV4). As to the kind of experiment: Inhibition of GST-tagged human CDK12/Cyclin K expressed in Sf9 cells using RBER-IRStide peptide as substrate in presence of ATP and [gamma33-P] ATP by radioisotope filter binding assay.
Sequence of CDK12/Cyclin K (O75909 whole entry): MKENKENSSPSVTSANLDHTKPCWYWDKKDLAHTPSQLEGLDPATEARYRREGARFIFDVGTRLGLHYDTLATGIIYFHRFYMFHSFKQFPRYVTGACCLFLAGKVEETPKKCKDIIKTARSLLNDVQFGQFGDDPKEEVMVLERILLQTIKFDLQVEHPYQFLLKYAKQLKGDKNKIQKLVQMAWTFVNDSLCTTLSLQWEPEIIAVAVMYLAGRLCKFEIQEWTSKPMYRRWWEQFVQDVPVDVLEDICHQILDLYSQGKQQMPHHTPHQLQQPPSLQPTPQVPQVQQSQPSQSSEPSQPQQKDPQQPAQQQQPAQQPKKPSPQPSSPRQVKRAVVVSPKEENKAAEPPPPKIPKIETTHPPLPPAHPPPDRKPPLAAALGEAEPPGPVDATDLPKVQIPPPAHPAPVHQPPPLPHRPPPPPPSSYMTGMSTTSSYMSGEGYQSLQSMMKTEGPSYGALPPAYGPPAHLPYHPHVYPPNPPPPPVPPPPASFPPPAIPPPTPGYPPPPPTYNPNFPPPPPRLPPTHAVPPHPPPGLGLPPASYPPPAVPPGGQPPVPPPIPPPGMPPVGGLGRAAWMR
Sequence of CDK12/Cyclin K (Q9NYV4 whole entry): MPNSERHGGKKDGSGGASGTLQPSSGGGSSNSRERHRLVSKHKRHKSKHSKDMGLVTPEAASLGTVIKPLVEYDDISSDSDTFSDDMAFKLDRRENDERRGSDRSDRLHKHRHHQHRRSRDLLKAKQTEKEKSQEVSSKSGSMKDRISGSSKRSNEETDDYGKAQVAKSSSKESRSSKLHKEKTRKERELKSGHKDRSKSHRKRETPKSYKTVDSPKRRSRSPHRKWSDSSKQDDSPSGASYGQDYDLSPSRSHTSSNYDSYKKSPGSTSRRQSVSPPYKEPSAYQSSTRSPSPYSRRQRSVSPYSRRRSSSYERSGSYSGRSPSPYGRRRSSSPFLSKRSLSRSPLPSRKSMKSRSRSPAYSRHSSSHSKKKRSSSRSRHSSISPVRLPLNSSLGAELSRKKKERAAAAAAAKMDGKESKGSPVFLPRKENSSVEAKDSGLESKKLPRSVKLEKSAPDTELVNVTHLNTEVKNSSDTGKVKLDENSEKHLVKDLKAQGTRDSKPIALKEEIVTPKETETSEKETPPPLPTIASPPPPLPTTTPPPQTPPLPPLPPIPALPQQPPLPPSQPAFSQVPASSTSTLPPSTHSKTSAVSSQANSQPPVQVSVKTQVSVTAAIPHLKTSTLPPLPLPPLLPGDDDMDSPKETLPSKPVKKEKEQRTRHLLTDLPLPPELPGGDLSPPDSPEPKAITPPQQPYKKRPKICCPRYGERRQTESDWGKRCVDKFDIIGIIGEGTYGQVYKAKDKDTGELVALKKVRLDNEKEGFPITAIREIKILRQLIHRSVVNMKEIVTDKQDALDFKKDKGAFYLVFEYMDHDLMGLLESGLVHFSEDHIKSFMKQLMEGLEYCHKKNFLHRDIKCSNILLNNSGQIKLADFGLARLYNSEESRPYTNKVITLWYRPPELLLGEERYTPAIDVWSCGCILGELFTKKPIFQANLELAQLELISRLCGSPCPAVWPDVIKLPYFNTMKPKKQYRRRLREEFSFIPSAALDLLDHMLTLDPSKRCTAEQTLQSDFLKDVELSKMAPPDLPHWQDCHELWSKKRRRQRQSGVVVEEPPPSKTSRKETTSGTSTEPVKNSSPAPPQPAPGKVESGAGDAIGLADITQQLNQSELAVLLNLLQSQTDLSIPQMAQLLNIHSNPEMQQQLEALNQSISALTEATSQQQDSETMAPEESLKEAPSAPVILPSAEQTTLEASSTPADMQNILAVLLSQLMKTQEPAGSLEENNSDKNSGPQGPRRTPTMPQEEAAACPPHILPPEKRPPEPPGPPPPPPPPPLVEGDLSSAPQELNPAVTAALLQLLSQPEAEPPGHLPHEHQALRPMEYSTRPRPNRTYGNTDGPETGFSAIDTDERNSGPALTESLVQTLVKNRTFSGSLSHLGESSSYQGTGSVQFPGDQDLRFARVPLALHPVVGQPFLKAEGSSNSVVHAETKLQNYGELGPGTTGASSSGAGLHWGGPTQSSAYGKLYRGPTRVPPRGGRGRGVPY
Assay [7] is described as follows: Antiproliferative activity against human OCI-Ly2 cells assessed as cell growth inhibition measured after 72 hrs by resazurin dye based microplate reader analysis. Type of assay: functional.
Assay [8] has as its target Cyclin-dependent kinase 2/cyclin E1 (Homo sapiens, UniProt P24941). In words: Inhibition of His-tagged CDK2/cyclin E1 (unknown origin) expressed in Sf9 cells using histone H1 as substrate in presence of ATP and [gamma33-P]ATP by radioisotope filter binding assay. The class given is cell-based.
Assay [9] concerns the target Cyclin-dependent kinase 2/G1/S-specific cyclin-D1 (Homo sapiens, UniProt P24385+P24941). The class given is cell-based, Sf9.
The nature of assay [10]: Antiproliferative activity against human Ri-1 cells assessed as cell growth inhibition measured after 72 hrs by resazurin dye based microplate reader analysis. The class given is functional.
In the next assay the test system is U2932. As to the kind of experiment: Antiproliferative activity against human U2932 cells assessed as cell growth inhibition measured after 72 hrs by resazurin dye based microplate reader analysis. Type of assay: functional.
Assay [11] is described as follows: Inhibition of GST-tagged human CDK5/p25 expressed in Sf9 cells using histone H1 as substrate in presence of ATP and [gamma33-P] ATP by radioisotope filter binding assay.
Another assay has as its system OCI-LY19. As to the kind of experiment: Antiproliferative activity against human OCILY19 cells assessed as cell growth inhibition measured after 72 hrs by resazurin dye based microplate reader analysis. Type of assay: functional.
For assay [12], the system named is VFN-D2. As to the kind of experiment: In vivo induction of degradation of cyclin K in patient-derived VFN-D2 cells xenografted in NSG mouse assessed as reduction in CDK12 levels at 0.1 to 10 mg/kg, ip measured after 24 hrs by immunoblotting analysis. The class given is functional, organism-based. As to conditions: dose 0.1-10 mg/kg. (In general: In xenograft studies the graft and the host belong to different species.)

Assay [13] has as its system MINO. In words: Downregulation of CDK4 levels in human MINO cells incubated for 24 hrs by immunoblotting analysis. Type of assay: functional, cell-based. As to conditions: dose 2.5-40 nM, DDE = dose-dependent effect.
The subject of assay [14] is MINO. In words: Induction of degradation of cyclin K in human MINO cells coexpressing DDB1 with siRNA assessed as stabilization of cyclin K levels at 100 nM measured after 1 hrs by immunoblotting analysis. The class given is functional, cell-based. (In general: Immunoblotting shows a protein as a band on a membrane.)
Assay [15] concerns MINO. As to the kind of experiment: Inhibition of CDK in human MINO cells assessed as dephosphorylation of retinoblastoma protein incubated for 2 hrs by immunoblotting analysis. The class given is cell-based. To be noted: dose 0.005-5 µM, DDE = dose-dependent effect.
Assay [16] deals with MINO. In words: Induction of apoptosis in human MINO cells assessed as reduction in mcl-1 levels at 2.5 to 40 nM measured after 24 hrs by immunoblotting analysis. The class given is functional, cell-based. As to conditions: dose 2.5-40 nM.
Assay [17] concerns MINO. As to the kind of experiment: Downregulation of cyclin K levels in human MINO cells at 5 nM incubated for 2 hrs by immunoblotting analysis. Type of assay: functional, cell-based.
The test system of assay [18] is MINO. In words: Inhibition of CDK in human MINO cells assessed as dephosphorylation of C-terminus of RNA polymerase II at serine 5 incubated for 2 hrs by immunoblotting analysis. As to conditions: dose 0.005-5 µM, DDE = dose-dependent effect. Type of assay: cell-based.
Assay [19] has as its system MINO. As to the kind of experiment: Downregulation of RB levels in human MINO cells incubated for 24 hrs by immunoblotting analysis. Type of assay: functional, cell-based. As to conditions: dose 2.5-40 nM, DDE = dose-dependent effect.
The subject of assay [20] is MINO. In words: Induction of apoptosis in human MINO cells assessed as reduction in XIAP levels at 2.5 to 40 nM measured after 24 hrs by immunoblotting analysis. Type of assay: functional, cell-based. As to conditions: dose 2.5-40 nM.
For assay [21], the system named is VFN-D2. In words: In vivo induction of degradation of cyclin K in patient-derived VFN-D2 cells xenografted in NSG mouse assessed as reduction in cyclin K levels at 0.1 to 10 mg/kg, ip measured after 24 hrs by immunoblotting analysis. To be noted: dose 0.1-10 mg/kg. Type of assay: functional, organism-based.
Assay [22] has as its system MINO. In words: Downregulation of cyclin K levels in human MINO cells at 50 nM incubated for 2 hrs by immunoblotting analysis. The class given is functional, cell-based.
The test system of assay [23] is MINO. In words: Downregulation of cyclin D1 levels in human MINO cells incubated for 24 hrs by immunoblotting analysis. The class given is functional, cell-based. To be noted: dose 2.5-40 nM, DDE = dose-dependent effect.
In assay [24] the test system is MINO. As to the kind of experiment: Inhibition of CDK in human MINO cells assessed as dephosphorylation of C-terminus of RNA polymerase II at serine 2 incubated for 2 hrs by immunoblotting analysis. The class given is cell-based. As to conditions: dose 0.005-5 µM, DDE = dose-dependent effect.
Assay [25] relates to MINO. In words: Downregulation of mcl-1 levels in human MINO cells incubated for 2 hrs by immunoblotting analysis. The class given is functional, cell-based. As to conditions: dose 2.5-40 nM, DDE = dose-dependent effect.

Sequence of Cyclin-dependent kinase 13/Cyclin-K (Q14004 whole entry): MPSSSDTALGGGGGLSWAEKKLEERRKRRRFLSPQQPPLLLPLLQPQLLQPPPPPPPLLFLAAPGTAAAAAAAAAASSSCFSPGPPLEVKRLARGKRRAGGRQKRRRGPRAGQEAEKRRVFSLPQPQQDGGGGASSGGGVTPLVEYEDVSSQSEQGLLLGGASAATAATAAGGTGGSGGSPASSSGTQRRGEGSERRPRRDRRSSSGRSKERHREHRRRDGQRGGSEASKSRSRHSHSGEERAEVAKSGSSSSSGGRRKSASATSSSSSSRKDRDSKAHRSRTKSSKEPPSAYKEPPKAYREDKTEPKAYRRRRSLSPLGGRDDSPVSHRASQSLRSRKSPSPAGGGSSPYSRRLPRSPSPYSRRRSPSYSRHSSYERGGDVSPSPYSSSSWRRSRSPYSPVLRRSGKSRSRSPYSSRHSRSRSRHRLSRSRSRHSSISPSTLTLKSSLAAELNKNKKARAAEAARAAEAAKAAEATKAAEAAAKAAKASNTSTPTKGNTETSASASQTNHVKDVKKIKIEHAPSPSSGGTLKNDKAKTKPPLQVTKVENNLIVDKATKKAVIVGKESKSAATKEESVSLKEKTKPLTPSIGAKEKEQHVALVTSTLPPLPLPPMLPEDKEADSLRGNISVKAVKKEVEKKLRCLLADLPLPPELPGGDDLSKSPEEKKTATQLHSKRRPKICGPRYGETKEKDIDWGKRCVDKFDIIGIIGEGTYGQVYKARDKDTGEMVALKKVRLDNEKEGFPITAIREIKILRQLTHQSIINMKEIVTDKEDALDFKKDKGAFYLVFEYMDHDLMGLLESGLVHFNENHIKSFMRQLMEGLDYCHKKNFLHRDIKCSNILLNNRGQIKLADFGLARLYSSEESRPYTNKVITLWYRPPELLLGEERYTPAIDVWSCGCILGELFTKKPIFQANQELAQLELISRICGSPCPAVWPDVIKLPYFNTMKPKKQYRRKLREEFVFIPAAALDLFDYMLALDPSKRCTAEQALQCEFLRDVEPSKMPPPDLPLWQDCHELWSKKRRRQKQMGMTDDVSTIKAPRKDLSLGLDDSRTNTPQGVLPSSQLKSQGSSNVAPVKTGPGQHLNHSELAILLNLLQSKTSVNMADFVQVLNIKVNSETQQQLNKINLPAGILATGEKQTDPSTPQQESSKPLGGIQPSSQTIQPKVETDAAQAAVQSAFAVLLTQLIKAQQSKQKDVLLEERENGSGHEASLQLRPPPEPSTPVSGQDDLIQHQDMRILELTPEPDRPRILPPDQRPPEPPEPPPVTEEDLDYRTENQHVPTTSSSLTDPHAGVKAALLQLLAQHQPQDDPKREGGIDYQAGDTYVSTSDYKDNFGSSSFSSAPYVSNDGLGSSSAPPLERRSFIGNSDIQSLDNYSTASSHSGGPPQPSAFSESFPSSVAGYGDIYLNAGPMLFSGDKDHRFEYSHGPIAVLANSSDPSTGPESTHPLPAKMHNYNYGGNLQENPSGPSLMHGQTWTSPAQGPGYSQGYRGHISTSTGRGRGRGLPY
Sequence of Cyclin-dependent kinase 13/Cyclin-K (O75909 whole entry, further chain): as the sequence (O75909 whole entry) above

`CC(O)CSc1nc(NCc2ccc(-n3cccn3)cc2)c2n[nH]c(C(C)C)c2n1` (configuration not stated): the concentration for 50% growth inhibition (GI50) was determined as 18 nM in assay [1]; 105 nM in the assay with SUD4; 62 nM in the assay with NU-DUL-1; 61 nM in assay [6]; 78 nM in the assay on DB; 55 nM in assay [7]. The values for the 50% growth inhibitory concentration (GI50) (in assay [10]; in the assay with U2932; with OCI-LY19) were 61 nM, 59 nM and 101 nM, respectively. Further, the inhibition in [2], in assay [3] and in assay [4] was over 50% in each case. In addition, the 50% inhibitory concentration (IC50) was 62 nM on CDK9/cyclin T1; 122 nM in [5]; 156 nM at CDK12/Cyclin K; 6 nM in [8]; over 1000 nM in assay [9]; 179 nM in assay [11].

Take `NCCSc1nc(NCc2ccc(-n3cccn3)cc2)c2[nH]nc(C3CCC3)c2n1`: the result with VFN-D2 [12], in the assay on MINO [14], in the assay with MINO [16], in the assay on MINO [17], in the assay on MINO [20] and with VFN-D2 [21] was Active. Moreover, the result in the assay on MINO [22] was Active. Further, the Activity entry with MINO [13], in the assay with MINO [15], in the assay on MINO [18], in the assay with MINO [19], in the assay with MINO [23] and in the assay on MINO [24] was “Dde” in each case. Also, the Activity result in the assay on MINO [25] was “Dde”. Also, the GI50 in [1] was 10 nM; with SUD4, 28 nM; with NU-DUL-1 it was 15 nM; in [6], 10 nM; with DB it was 20 nM; in [7] it was 11 nM. Besides, the GI50 in assay [10] is 54 nM; in the assay on U2932 it was 55 nM; with OCI-LY19, 465 nM. Moreover, the IC50 is 20 nM at CDK9/cyclin T1; 22 nM in assay [5]; 64 nM at CDK12/Cyclin K; 4 nM in assay [8]; over 1000 nM in [9]; 39 nM in [11].

The GI50 is the concentration that inhibits growth by half. What is called inhibition is the share of the control response that was lost under treatment. In general, IC50 refers to the point on the concentration scale where inhibition reaches its midpoint.

(Values after ChEMBL document CHEMBL5131567, “3,5,7-Substituted Pyrazolo[4,3-d]Pyrimidine Inhibitors of Cyclin-Dependent Kinases and Cyclin K Degraders” (J Med Chem, 2022).)
